Results on two compounds are retold here after publication PMC11626117 (Proceedings of the National Academy of Sciences of the …, 2024).

The target in this assay is CoaX (Rv3600c) (Mycobacterium tuberculosis, UniProt P9WPA1).
CoaX (Rv3600c), sequence (P9WPA1 whole entry, looked up): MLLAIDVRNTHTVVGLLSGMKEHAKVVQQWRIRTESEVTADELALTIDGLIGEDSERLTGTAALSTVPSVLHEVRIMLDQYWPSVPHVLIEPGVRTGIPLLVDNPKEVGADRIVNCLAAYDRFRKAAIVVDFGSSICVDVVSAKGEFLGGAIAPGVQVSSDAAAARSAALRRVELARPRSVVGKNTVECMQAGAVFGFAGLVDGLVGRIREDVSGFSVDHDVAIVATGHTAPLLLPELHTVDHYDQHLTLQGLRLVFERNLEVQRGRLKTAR

Consider `Nc1ncnc2c1ncn2[C@@H]1O[C@H](COP(=O)(O)OP(=O)(O)OP(O)(O)=S)[C@@H](O)[C@H]1O` [ATPγS], for which the thermal shift result is on record as “increasing concentrations of ATPγS in the presence of pantothenate had the largest effect”.

As for `CC(C)(CO)[C@@H](O)C(=O)NCCC(=O)O` [pantothenate], the thermal shift result is “Increasing pantothenate concentration had a subtle effect on CoaX thermostability”.
